Source: publication PMC6151709, “Immobilization of Moniliella spathulata R25L270 Lipase on Ionic, Hydrophobic and Covalent Supports: Functional Properties and Hydrolysis of Sardine Oil” (Molecules : A Journal of Synthetic Chemistry and Natural …, 2017)

Tested on: T1, M. spathulata R25L270 lipase
T1 construct: native secreted enzyme; crude culture supernatant (Macauba cake medium), not purified here; free enzyme
Assay: spectrophotometric release of p-nitrophenol at […] nm
Type: biochemical, Moniliella spathulata
Conditions: free enzyme, crude culture supernatant; pH 8.0, 37 °C; pNPP 0.1-1 mM; Triton X-100, gum arabic, 2-propanol in the substrate solution; read-out: Michaelis Constant KM

Km: 1920 µM
Structure (SMILES): CCCCCCCCCCCCCCCC(=O)Oc1ccc([N+](=O)[O-])cc1 [p-nitrophenylpalmitate]
